Measurements as given in PubChem BioAssay (NCI).
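Each compound was tested at five concentrations against cells in 96-well plates for 48 hours. GI50: concentration for 50% inhibition of growth. TGI is the concentration that stops growth completely.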

Assays:
Assay in all cases: DTP human tumour cell line panel, 48 h
DU-145 prostate = tested on: DU-145 prostate
HCT-15 colon = tested on: HCT-15 colon
HT29 colon = tested on: HT29 colon
MCF7 breast = tested on: MCF7 breast
OVCAR-4 ovarian = tested on: OVCAR-4 ovarian
OVCAR-5 ovarian = tested on: OVCAR-5 ovarian
SK-MEL-2 melanoma = tested on: SK-MEL-2 melanoma
SN12C renal = tested on: SN12C renal
U251 CNS = tested on: U251 CNS
UO-31 renal = tested on: UO-31 renal

SMILES	GI50 (DU-145 prostate) [µM]	TGI (DU-145 prostate) [µM]	GI50 (HCT-15 colon) [µM]	TGI (HCT-15 colon) [µM]	GI50 (HT29 colon) [µM]	TGI (HT29 colon) [µM]	GI50 (MCF7 breast) [µM]	TGI (MCF7 breast) [µM]	GI50 (OVCAR-4 ovarian) [µM]	TGI (OVCAR-4 ovarian) [µM]	GI50 (OVCAR-5 ovarian) [µM]	TGI (OVCAR-5 ovarian) [µM]	GI50 (SK-MEL-2 melanoma) [µM]	TGI (SK-MEL-2 melanoma) [µM]	GI50 (SN12C renal) [µM]	TGI (SN12C renal) [µM]	GI50 (U251 CNS) [µM]	TGI (U251 CNS) [µM]	GI50 (UO-31 renal) [µM]	TGI (UO-31 renal) [µM]
COc1ccc(-c2cc(-c3ccc(Cl)cc3)nc(SCCCC(=O)NO)n2)cc1	0.826	6	0.413	1.7	1.41	3.77	1.81	7.43	0.849	11.6	1.37	6.92	2.42	6.94	0.654	> 20.5	0.753	> 22.5	0.237	1
C=C(C)[C@@H]1CC[C@]2(C(=O)O)CC[C@]3(C)[C@H](CC[C@@H]4[C@@]5(C)CCC(NC(=O)c6cccc(OC(C)=O)c6OC(C)=O)C(C)(C)[C@@H]5CC[C@]43C)[C@@H]12 (some centres undefined)	0.882	> 100	0.418	3.73	0.806	3.14	0.586	6.42	0.507	> 100	1.92	> 27.3	0.981	4.02	0.94	> 100	0.52	14.5	0.283	1.43
COC(=O)c1cc2c3ccccc3n3c(=O)c4cc5ccccc5nc4c(n1)c23	> 100	> 100	> 100	> 100	> 100	> 100	> 100	> 100	> 100	> 100	> 100	> 100	> 100	> 100	> 100	> 100	> 100	> 100	> 100	> 100
CCCN(CCC)c1ccc(/C=C/c2ccc3cc(OCC)ccc3n2)cc1	> 100	> 100	9.7	> 100	15	> 100	> 100	> 100	72.7	> 100	> 100	> 100	> 100	> 100	> 100	> 100	48.5	> 100	> 100	> 100
N#Cc1ccc2c(c1)C(=O)c1c-2n(CCCCl)c(=O)c2cc([N+](=O)[O-])ccc12	2.74	23.9	58.4	> 100	7.93	> 100	0.38	> 100	60.8	> 100	65.4	> 100	16.9	54.1	5.93	> 100	1.63	16.4	2.61	> 100
COc1cc(N2CCC(N3CCN(C)CC3)CC2)ccc1Nc1ncnc(Nc2ccccc2S(=O)(=O)C(C)C)n1	5.32	20.9	3.5	> 46.5	1.93	7.25	2.36	23.5	8.93	42.2	2.06	12.8	5.83	16.3	2.89	29.8	4.34	19.1	2.62	12.6
C[C@@H](O)[C@H](NC(=O)N[C@@H](CC(N)=O)c1nc([C@@H](N)CO)no1)C(=O)O	> 100	> 100	> 100	> 100	> 100	> 100	> 100	> 100	> 100	> 100	> 100	> 100	> 100	> 100	> 100	> 100	> 100	> 100	> 100	> 100
CC(=Nc1ccccc1)C1=C(O)C(Cc2ccc(O)cc2)NC1=O (centres undefined)	0.178	0.994	0.0585	> 46.8	0.0472	0.452	0.0391	> 100	0.385	> 100	0.548	> 100	0.206	> 100	0.991	> 100	0.0609	–	0.321	> 100
C=C1C(=O)O[C@H]2[C@H]1CC/C(COC(=O)c1cc3ccccc3o1)=C\CC[C@@]1(C)O[C@@H]21	1.18	2.45	1.07	2.86	0.829	2.21	0.395	2.18	1.56	3.98	1.88	3.75	1.77	3.81	1.78	4.12	1.63	3.16	1.46	2.79
COc1ccc(-c2oc(=O)ccc2-c2cc(OC)c(OC)c(OC)c2)cc1O	2.05	> 100	0.769	> 100	3.97	> 47.3	0.421	> 53.6	6.65	> 100	12.7	> 100	2.31	> 38.7	6.4	> 100	1.1	> 100	3.72	> 51.1
O=C(O)c1ccc(Oc2nccc(-c3c(-c4ccc(F)cc4)ncn3C3CCNCC3)n2)cc1	> 25	> 25	> 25	> 25	> 25	> 25	> 25	> 25	> 25	> 25	> 25	> 25	> 25	> 25	> 25	> 25	> 25	> 25	> 25	> 25
Cc1cc(=O)oc2c(C)c(O)ccc12	–	> 100	–	> 100	–	> 100	–	> 100	–	> 100	–	> 100	–	> 100	–	> 100	–	> 100	–	> 100
